Measured values taken from patent US11655268B2, “Nucleoside or nucleotide derivatives, and uses thereof” (ST Pharm Co., Ltd., priority 2018, dated 2023).
Where two headings read alike, the source gives them in different places.

Key:
[1] = tested on: Influenza virus B/Lee/40; assay: Cytopathic effect reduction, influenza B Lee in MDCK cells, MTT; assay type: cell-based; conditions: for Selectivity index FluB Lee: CC50/EC50; for EC50: MDCK, 72 h, read-out: Anti-Flu activity EC50 FluB Lee
[2] = in vitro; conditions: human
[3] = tested on: CHIKV; assay: Cytopathic effect reduction, Chikungunya virus in Vero cells, MTT; assay type: cell-based; conditions: 72 h, read-out: EC50 CHIKV
[4] = tested on: MERS-CoV; assay: microbe, parasite or virus in culture; assay type: cell-based, MERS virus (MERS-CoV/KOR/KNIH/002_05_2015); conditions: Middle East respiratory syndrome-related coronavirus, Huh-7, 72 h, read-out: EC50 MERS-CoV
[5] = tested on: DENV; assay: Reduction in viral infection, dengue virus in Vero cells, immunofluorescence (4G2 antibody); assay type: cell-based, Dengue virus New Guinea C (NGC); conditions: 72 h, read-out: EC50 DENV
[6] = in vitro; conditions: dog
[7] = Cytotoxicity (CC50) in Vero cells; conditions: African green monkey
[8] = tested on: ZIKV; assay: Reduction in viral infection, zika virus in Vero cells, immunofluorescence (4G2 antibody); assay type: cell-based, Zikavirus (MR766); conditions: 72 h, day 3 after infection
[9] = tested on: MRC-5 cells
[10] = tested on: FIPV; assay: Cytopathic effect reduction, FIPV in CRFK cells, MTT; assay type: cell-based, feline infectious peritonitis virus (FIPV); conditions: read-out: EC50 FIPV
[11] = in vitro; conditions: cat
[12] = tested on: hCoV (OC43); assay: Cytopathic effect reduction, hCoV OC43 in MRC-5 cells, MTT; assay type: cell-based, Human coronavirus hCoV OC43; conditions: Betacoronavirus 1, OC43, MRC5, 72 h, read-out: EC50 hCoV (OC43)
[13] = tested on: hCoV (229E); assay: microbe, parasite or virus in culture; assay type: cell-based, Human coronavirus hCoV 229E; conditions: MRC5, 72 h, read-out: EC50 hCoV (229E)
[14] = in vitro; conditions: human; remark: listed apart in the source
[15] = CC50 (DENV), Vero cells, DENV test
[16] = read-out: CC50 (hCoV OC43), MRC-5 cells, day 3
[17] = Alphacoronavirus 1, 72 h, CRFK cells, day 3 after infection
[18] = MRC-5 cells, day 3 after infection

| Structure (SMILES) | Selectivity index FluB Lee [1] | EC50 [1] | CC50 at 3 days [2] | EC50 [4] | EC50 [5] | CC50 at 3 days [6] | CC50 at 3 days [7, 15] | CC50 ([9]; human) | EC50 ([10]; Alphacoronavirus 1, CRFK, 72 h) | CC50 [11] | EC50 [12] | EC50 [13] | CC50 [14] | EC50 [13, 18] | further results |
| --- | --- | --- | --- | --- | --- | --- | --- | --- | --- | --- | --- | --- | --- | --- | --- |
| O=C(Nc1ccn(C2O[C@H](CO)[C@@H](O)[C@H]2F)c(=O)n1)c1cccc(-c2ccccc2)n1 (stereo in doubt) [Example 27, N-(1-((2S,3R,4R,5R)-3-fluoro-4-hydroxy-5-(hydroxymethyl)tetrahydrofuran-2-yl)-2-oxo-1,2-dihydropyrimidin-4-yl)-6-phenylpicolinamide] | >6.4 | 15.6 µM | 56.6 µM | 20.9 µM | 13.7 µM | > 100 µM | 64.4 µM |  |  |  |  |  |  |  | EC50 [3]: > 100 µM; CC50 at 3 days ([7]; CC50 (CHIKV), Vero cells, CHIKV test, MTT): > 100 µM; CC50 at 3 days ([7]; CC50, Vero cells, ZIKV test): > 100 µM; EC50 [8]: > 100 µM |
| Nc1ccc(C(=O)Nc2ccn(C3O[C@H](CO)[C@@H](O)[C@H]3F)c(=O)n2)nc1 (stereo in doubt) [Example 31, 5-Amino-N-(1-((2S,3R,4R,5R)-3-fluoro-4-hydroxy-5-(hydroxymethyl)tetrahydrofuran-2-yl)-2-oxo-1,2-dihydropyrimidin-4-yl)picolinamide] |  |  | > 100 µM | > 100 µM | > 100 µM |  | > 100 µM |  |  |  |  |  |  |  | CC50 at 3 days ([7]; CC50, Vero cells, ZIKV test): > 100 µM; EC50 [8]: 57.6 µM |
| O=C(Nc1ccn(C2O[C@H](CO)[C@@H](O)[C@H]2F)c(=O)n1)c1ccc(F)cn1 (stereo in doubt) [Example 35, 5-Fluoro-N-(1-((2S,3R,4R,5R)-3-fluoro-4-hydroxy-5-(hydroxymethyl)tetrahydrofuran-2-yl)-2-oxo-1,2-dihydropyrimidin-4-yl)picolinamide] | >2.7 | 37.4 µM | > 100 µM | > 100 µM |  | > 100 µM |  |  |  |  |  |  |  |  |  |
| O=C(Nc1ccn([C@@H]2O[C@H](CO)[C@@H](O)C2(F)F)c(=O)n1)c1cccnc1 [Example 1, N-(1-((2R,4R,5R)-3,3-difluoro-4-hydroxy-5-(hydroxymethyl)tetrahydrofuran-2-yl)-2-oxo-1,2-dihydropyrimidin-4-yl)nicotinamide] | >34.9 | 8.6 µM | > 100 µM | 10.4 µM | 3.42 µM | > 100 µM | > 100 µM | > 100 µM | 25 µM | 56 µM | 76 µM | 4.6 µM | > 100 µM |  |  |
| O=C(Nc1ccn([C@@H]2O[C@H](CO)[C@@H](O)C2(F)F)c(=O)n1)c1ccccn1 [Example 2, N-(1-((2R,4R,5R)-3,3-difluoro-4-hydroxy-5-(hydroxymethyl)tetrahydrofuran-2-yl)-2-oxo-1,2-dihydropyrimidin-4-yl)picolinamide] | >136.4 | 2.2 µM | > 100 µM | 1.8 µM | 0.72 µM | > 100 µM | > 100 µM | > 100 µM | 9.1 µM | > 100 µM | > 100 µM | 0.8 µM | > 100 µM |  |  |
| Cc1ccc(C(=O)Nc2ccn([C@@H]3O[C@H](CO)[C@@H](O)C3(F)F)c(=O)n2)cn1 [Example 4, N-(1-((2R,4R,5R)-3,3-difluoro-4-hydroxy-5-(hydroxymethyl)tetrahydrofuran-2-yl)-2-oxo-1,2-dihydropyrimidin-4-yl)-6-methylnicotinamide] | >157.9 | 1.9 µM | > 100 µM | 2.2 µM | 0.71 µM | > 100 µM | > 100 µM | > 100 µM | 8.1 µM | > 100 µM | > 100 µM | 11.1 µM | > 100 µM |  |  |
| O=C(Nc1ccn([C@@H]2O[C@H](CO)[C@@H](O)C2(F)F)c(=O)n1)c1cccnn1 [Example 5, N-(1-((2R,4R,5R)-3,3-difluoro-4-hydroxy-5-(hydroxymethyl)tetrahydrofuran-2-yl)-2-oxo-1,2-dihydropyrimidin-4-yl)pyridazine-3-carboxamide] | >142.9 | 2.1 µM | > 100 µM | 1.4 µM | 0.94 µM | > 100 µM | > 100 µM | > 100 µM | 8.5 µM | > 100 µM | 17.2 µM | 8.9 µM | > 100 µM |  |  |
| O=C1CCCN1c1ccn([C@@H]2O[C@H](CO)[C@@H](O)C2(F)F)c(=O)n1 [Example 7] | >10.6 | 9.4 µM |  |  | 15.7 µM | > 100 µM | > 100 µM |  |  | > 100 µM |  |  | > 100 µM | 17.6 µM | CC50 [9, 16]: > 100 µM; EC50 [10, 17]: 77 µM; EC50 [12, 18]: > 100 µM |
| O=C(Nc1ccn([C@@H]2O[C@H](CO)[C@@H](O)C2(F)F)c(=O)n1)c1ccc(F)cn1 [Example 9, N-(1-((2R,4R,5R)-3,3-difluoro-4-hydroxy-5-(hydroxymethyl)tetrahydrofuran-2-yl)-2-oxo-1,2-dihydropyrimidin-4-yl)-5-fluoropicolinamide] | >16.4 | 6.1 µM |  |  | 1.34 µM | > 100 µM | > 100 µM |  |  | > 100 µM |  |  | > 100 µM | 2.4 µM | CC50 [9, 16]: > 100 µM; EC50 [10, 17]: 18 µM; EC50 [12, 18]: > 100 µM |
| Cc1ccc(C(=O)Nc2ccn([C@@H]3O[C@H](CO)[C@@H](O)C3(F)F)c(=O)n2)nc1 [Example 10, N-(1-((2R,4R,5R)-3,3-difluoro-4-hydroxy-5-(hydroxymethyl)tetrahydrofuran-2-yl)-2-oxo-1,2-dihydropyrimidin-4-yl)-5-methylpicolinamide] | >10.2 | 9.8 µM |  |  | 2.53 µM | > 100 µM | > 100 µM |  |  | 92 µM |  |  | > 100 µM | 7.4 µM | CC50 [9, 16]: > 100 µM; EC50 [10, 17]: 21 µM; EC50 [12, 18]: > 100 µM |
| Cc1cccnc1C(=O)Nc1ccn([C@@H]2O[C@H](CO)[C@@H](O)C2(F)F)c(=O)n1 [Example 12, N-(1-((2R,4R,5R)-3,3-difluoro-4-hydroxy-5-(hydroxymethyl)tetrahydrofuran-2-yl)-2-oxo-1,2-dihydropyrimidin-4-yl)-3-methylpicolinamide] | >2.0 | 49.1 µM |  |  | 6.16 µM | > 100 µM | > 100 µM |  |  |  |  |  | > 100 µM | 12.2 µM |  |
| Cc1cccc(C(=O)Nc2ccn([C@@H]3O[C@H](CO)[C@@H](O)C3(F)F)c(=O)n2)n1 [Example 13, N-(1-((2R,4R,5R)-3,3-difluoro-4-hydroxy-5-(hydroxymethyl)tetrahydrofuran-2-yl)-2-oxo-1,2-dihydropyrimidin-4-yl)-6-methylpicolinamide] | >12.8 | 7.8 µM |  |  | 1.98 µM | > 100 µM | > 100 µM |  |  |  |  |  | > 100 µM | 5.8 µM |  |
